Test results reported in patent publication US10273305B2, “Bispecific CXCR4-CD4 polypeptides with potent anti-HIV activity” (Ablynx N.V., priority 2015, dated 2019).
Several values for one entry are separate records, joined by “and”; a condition that tells them apart may be missing. Identical values can stand only once. Like-named read-outs stand apart in the source and are kept apart here.

How the values were obtained:
[1] = system: CXCR4-using (X4) HIV-1 clone NL4.3; test: microbe, parasite or virus in culture; assay type: cell-based
HIV-1 X4 NL4.3 strain = test: HIV-1 NL4.3 infection of PHA-stimulated PBMCs, p24 Ag ELISA; assay type: cell-based
[2] = system: HIV-1 X4 UG270 clinical isolate (clade D); test: HIV-1 UG270 infection of PBMCs, p24; assay type: cell-based; conditions: Human immunodeficiency virus 1; PBMC, average 2 donors
[3] = system: HIV-1 CI#17 clinical isolate (clade B); test: HIV-1 CI#17 infection of PBMCs, p24; assay type: cell-based; conditions: Human immunodeficiency virus 1; PBMC, average 2 donors
[4] = system: HIV-1 CM237 clinical isolate (clade B); test: HIV-1 CM237 infection of PBMCs, p24; assay type: cell-based; conditions: Human immunodeficiency virus 1; PBMC, average 2 donors
[5] = system: dual-tropic R5/X4 HIV-1 HE; test: HIV-1 HE infection of PBMCs, p24; assay type: cell-based; conditions: Human immunodeficiency virus 1, PBMC, read-out: IC50 PBMC HE R5/X4 n = 9
[6] = system: HIV-1 NL4.3 3F11-resistant virus; test: microbe, parasite or virus in culture; assay type: cell-based
[7] = system: HIV-1 NL4.3 281F12-resistant virus; test: microbe, parasite or virus in culture; assay type: cell-based
AMD3100 resistant virus = test: microbe, parasite or virus in culture; assay type: cell-based, HIV-1; conditions: Human immunodeficiency virus 1, MT4, read-out: IC50 MT-4 AMD-3100 res.
[8] = system: CXCL-12 res. HIV-1 NL4.3 variant; test: microbe, parasite or virus in culture; assay type: cell-based; conditions: Human immunodeficiency virus 1, MT4, read-out: IC50 MT-4 CXCL-12 res.
NL4.3 3F11 res. = test: microbe, parasite or virus in culture; assay type: cell-based, HIV-1; conditions: Human immunodeficiency virus 1, PBMC, read-out: IC50 PBMC NL4.3 3F11 res. n = 2
NL4.3 281F12 res. = test: microbe, parasite or virus in culture; assay type: cell-based, HIV-1; conditions: Human immunodeficiency virus 1, PBMC, read-out: IC50 PBMC NL4.3 281F12 res. n = 2
X4 HIV-1 NL4.3 WT = test: TZM-bl luciferase assay, NL4.3 WT; assay type: cell-based; conditions: Human immunodeficiency virus 1, TZM-bl, read-out: IC50 TZM-bl X4 NL4.3 WT n = 4
NL4.3 281F12 res = test: microbe, parasite or virus in culture; assay type: cell-based, HIV-1; conditions: Human immunodeficiency virus 1, TZM-bl, read-out: IC50 TZM-bl X4 NL4.3 281F12 res n = 3
NL4.3 3F11 res = test: microbe, parasite or virus in culture; assay type: cell-based, HIV-1; conditions: Human immunodeficiency virus 1, TZM-bl, read-out: IC50 TZM-bl X4 NL4.3 3F11 res n = 3
HIV-1 NL4.3 (X4) = test: HIV-1 NL4.3 infection of U87 cells; conditions: Human immunodeficiency virus 1, U-87 MG, read-out: IC50 U87 + NL 4.3 (X4) n = 3
[9] = system: dual-tropic (R5/X4) HIV-1 strain HE; test: microbe, parasite or virus in culture; conditions: Human immunodeficiency virus 1, MT4, read-out: IC50 MT-4 HE R5/X4 n = 3
[10] = system: dual-tropic (R5/X4) HIV-2 ROD strain; test: microbe, parasite or virus in culture; conditions: Human immunodeficiency virus 2, MT4, read-out: IC50 MT-4 HIV-2 ROD R5/X4 n = 3
HUT-78/HIV1 IIIb = test: HIV-1-mediated cell-cell fusion, HUT-78/IIIb with SupT1 cells; conditions: Human immunodeficiency virus 1, IIIB, read-out: IC50 syncytia formation SupT1 + HUT-78/IIIb n = 3
HUT-78/HIV-1 NL4.3 = test: HIV-1-mediated cell-cell fusion, HUT-78/NL4.3 with SupT1 cells

For `c1cc(CN2CCCNCCNCCCNCC2)ccc1CN1CCCNCCNCCCNCC1` [AMD3100, plerixafor], which IC50 ([1]; Human immunodeficiency virus 1, MT4, read-out: IC50 MT-4 + NL 4.3 (X4) n = 3) is on record?
Its IC50 is 4.75 nM.

What about the IC50 ([1]; Human immunodeficiency virus 1, MT4, read-out: IC50 MT-4 NL4.3 X4 n = 3) of the same compound?
Its IC50 is 4.28 nM.

What about the IC50 ([1]; Human immunodeficiency virus 1, MT4, read-out: IC50 MT-4 NL4.3 wt) of the same compound?
Its IC50 is 4.28 nM.

What about the IC50 ([1]; Human immunodeficiency virus 1, MT4, read-out: IC50 X4 NL4.3 strain in MT-4 cells) of the same compound?
Its IC50 is 6.26 nM.

What about the IC50 (HIV-1 X4 NL4.3 strain; Human immunodeficiency virus 1, PBMC, read-out: IC50 PBMC + NL 4.3 (X4) n = 3, Table 8.1.1) of the same compound?
Its IC50 is 4.5 nM.

What about the IC50 (HIV-1 X4 NL4.3 strain; Human immunodeficiency virus 1, PBMC, read-out: IC50 PBMC NL4.3 WT n = 10, Table 8.3) of the same compound?
Its IC50 is 4.5 nM.

And the IC50 (HIV-1 X4 NL4.3 strain; Human immunodeficiency virus 1, PBMC, read-out: IC50 PBMC NL4.3 X4 n = 10, Table 8.1.2)?
The IC50 was 3.3 nM.

And the IC50 (HIV-1 X4 NL4.3 strain; Human immunodeficiency virus 1, PBMC, read-out: IC50 HIV-1 NL4.3 in PBMC)?
Its IC50 is 3.3 nM.

And the IC90 (HIV-1 X4 NL4.3 strain; Human immunodeficiency virus 1, PBMC, average 2 donors)?
The IC90 was 42 nM.

And the IC50 (HIV-1 X4 NL4.3 strain; Human immunodeficiency virus 1, PBMC, average 2 donors, read-out: IC50 NL4.3 X4)?
The IC50 was 13 nM.

What about the IC50 [2] of the same compound?
The IC50 was 16 nM.

What about the IC90 [2] of the same compound?
The IC90 was 41 nM.

And the IC50 [3]?
Its IC50 is 22 nM.

What about the IC90 [3] of the same compound?
The IC90 was 47 nM.

And the IC50 [4]?
The IC50 was 10 nM.

What about the IC90 [4] of the same compound?
The IC90 was 24 nM.

What about the IC50 [5] of the same compound?
Its IC50 is 26 nM.

What about the IC50 ([6]; Human immunodeficiency virus 1, MT4, read-out: IC50 MT-4 3F11 res.) of the same compound?
The IC50 was 18.5 nM.

And the IC50 ([6]; Human immunodeficiency virus 1, MT4, read-out: IC50 against HIV-1 NL4.3 3F11res virus)?
The IC50 was 18 nM and 0.014 µg/mL.

And the IC50 ([7]; Human immunodeficiency virus 1, MT4, read-out: IC50 MT-4 281F12 res.)?
The IC50 was 399 nM.

What about the IC50 ([7]; Human immunodeficiency virus 1, MT4, read-out: IC50 against HIV-1 NL4.3 281F12res virus) of the same compound?
Its IC50 is 400 nM and 0.317 µg/mL.

And the IC50 (AMD3100 resistant virus)?
Its IC50 is 404 nM.

What about the IC50 [8] of the same compound?
Its IC50 is 50.3 nM.

What about the IC50 (NL4.3 3F11 res.) of the same compound?
The IC50 was 20 nM.

And the IC50 (NL4.3 281F12 res.)?
Its IC50 is 57 nM.

What about the IC50 (X4 HIV-1 NL4.3 WT) of the same compound?
The IC50 was 411 nM.

What about the IC50 (NL4.3 281F12 res) of the same compound?
The IC50 was 4920 nM.

And the IC50 (NL4.3 3F11 res)?
The IC50 was 915 nM.

And the IC50 (HIV-1 NL4.3 (X4))?
Its IC50 is 10 nM.

What about the IC50 [9] of the same compound?
The IC50 was 3.9 nM.

What about the IC50 [10] of the same compound?
The IC50 was 21.1 nM.

What about the IC50 (HUT-78/HIV1 IIIb) of the same compound?
Its IC50 is 22000 nM.

And the IC50 (HUT-78/HIV-1 NL4.3; Human immunodeficiency virus 1, HuT78, read-out: IC50 cell-cell fusion)?
Its IC50 is 1100 nM.

What about the IC50 (HUT-78/HIV-1 NL4.3; Human immunodeficiency virus 1, read-out: IC50 syncytia formation SupT1 + HUT-78/NL4.3 n = 4) of the same compound?
The IC50 was 1120 nM.
